From US9855243B2, “Topical anti-inflammatory pharmaceutical composition with zileuton cream formulation” (Qurient Co., Ltd., priority 2013, dated 2018)

Assays:
[1] = Physical stability, phase separation checked with the naked eye; format: physicochemical; conditions: solvent screened in cream composition
Description: This is a test to discover an optimized processing method for obtaining a cream formulation.

[2] = Screening of excipient suitability: zileuton with excipient, stability at 50° C.; format: physicochemical; conditions: changes of TRS % up to 4 weeks at 50° C.
Experimental: Suitability of components generally used in cream formulation with respect to zieluton was screened, prior to preparing a zieluton cream formulation. […] That is, the stability of excipient at 50° C. was tested.

SMILES | Physical stability of cream made with this solvent [1] | Suitability of excipient with respect to zileuton [2]
CCO [ethanol] | deteriorates physical stability | –
CCCCCCCCCCCCCCCCCCO [stearyl alcohol] | – | suitable
CN1CCCC1=O [NMP, N-methyl pyrrolidone] | bad physical stability | –
OCc1ccccc1 [benzyl alcohol] | bad physical stability | –
